In PubChem BioAssay AID1117348 (Cheminformatics & Chemogenomics Research Group (CCRG), …, 2015):
Calls of active or inactive are those of the source. No rule for the calls is given here.

Test system: HeLa cell cycle, increased S-phase population
Test: HeLa S-phase population increase, dose response, cell-based, IC50 (AID 1117348)

SMILES | IC50
CC(=O)Oc1ccc(C2(c3ccc(OC(C)=O)cc3)Oc3ccccc3NC2=O)cc1 | > 10 µM (inactive)
CCCCCCCCCCCCNCCNCCNCC(=O)O | > 10 µM (inactive)
CC(=O)[C@]1(O)Cc2c(O)c3c(c(O)c2[C@@H](O[C@H]2C[C@H](N)[C@H](O)[C@H](C)O2)C1)C(=O)c1ccccc1C3=O | > 10 µM (inactive)
Cc1ccc2c(c1)c1c3n2CCNC3CCC1 (centres undefined) | > 10 µM (inactive)
CN(Cc1cnc2nc(N)nc(N)c2n1)c1ccc(C(=O)N[C@@H](CCC(=O)O)C(=O)O)cc1 | > 10 µM (inactive)
O=C1[C@H]2CCCC[C@H]2C(=O)N1CCCCN1CCN(c2nsc3ccccc23)CC1 | > 10 µM (inactive)
C=C(C)[C@H]1Cc2c(ccc3c2O[C@@H]2COc4cc(OC)c(OC)cc4[C@@H]2C3=O)O1 | > 10 µM (inactive)
CC[n+]1c(-c2ccccc2)c2cc(N)ccc2c2ccc(N)cc21 | > 10 µM (inactive)
CCCCCCCCCCCCCC[N+](C)(C)C | > 10 µM (inactive)
COC(=O)Nc1nc2ccc(C(=O)c3cccs3)cc2[nH]1 | > 10 µM (inactive)
COc1cc2c(c(OC)c1OC)-c1ccc(OC)c(=O)cc1[C@@H](NC(C)=O)CC2 | 0.1 µM (inactive)
CCC(COC(=O)c1cc(OC)c(OC)c(OC)c1)(c1ccccc1)N(C)C (centres undefined) | > 10 µM (inactive)
O=c1[nH]cc(F)c(=O)[nH]1 | > 10 µM (inactive)
CC(=O)Nc1ccn(C2COC(COC(=O)c3ccccc3)O2)c(=O)n1 (centres undefined) | 0.312 µM
CC(C)(C)C(=O)OCOP(=O)(COCCn1cnc2c(N)ncnc21)OCOC(=O)C(C)(C)C | 0.0608 µM
O[C@@H](CNC[C@H](O)[C@H]1CCc2cc(F)ccc2O1)[C@@H]1CCc2cc(F)ccc2O1 | > 10 µM (inactive)
C[C@]12CC[C@@H]3c4ccc(O)cc4CC[C@H]3[C@@H]1CC[C@@H]2OC(=O)CCC1CCCC1 | > 10 µM (inactive)
COC(=O)c1nc(Cl)c(Cl)nc1N | > 10 µM (inactive)
CCN1/C(=C/C=C/c2sc3ccccc3[n+]2CC)Sc2ccccc21 | > 10 µM (inactive)
N[C@@H](Cc1ccc(N(CCCl)CCCl)cc1)C(=O)O | > 10 µM (inactive)

SMILES | IC50
Clc1ccc(Nc2nnc(Cc3ccncc3)c3ccccc23)cc1 | > 10 µM (inactive)
COC(=O)[C@H]1[C@H]2C[C@@H]3c4[nH]c5cc(OC)ccc5c4CCN3C[C@H]2C[C@@H](OC(=O)/C=C/c2ccc(O)c(OC)c2)[C@@H]1OC | > 10 µM (inactive)
CCCCC(CC)CN=C(N)NC(N)=NCCCCCCN=C(N)NC(N)=NCC(CC)CCCC (centres undefined) | > 10 µM (inactive)
Oc1c(Cl)cc(Cl)cc1Sc1cc(Cl)cc(Cl)c1O | > 10 µM (inactive)
O=C(O)CCCc1ccc(N(CCCl)CCCl)cc1 | 2.19 µM
C[C@@]12C(=O)OC(=O)[C@]1(C)C1CCC2O1 | > 10 µM (inactive)
O=C(NOCC1CC1)c1ccc(F)c(F)c1Nc1ccc(I)cc1Cl | > 10 µM (inactive)
O=c1[nH]c(=O)n([C@H]2C[C@H](O)[C@@H](CO)O2)cc1I | > 10 µM (inactive)
CCCCCCCCCCCC[N+](C)(C)Cc1ccccc1 | > 10 µM (inactive)
C1CN(P2(N3CC3)=NP(N3CC3)(N3CC3)=NP(N3CC3)(N3CC3)=N2)CCO1 (centres undefined) | > 10 µM (inactive)
COc1cc([C@@H]2c3cc4c(cc3[C@H](O)[C@H]3COC(=O)[C@H]23)OCO4)cc(OC)c1OC | > 10 µM (inactive)
Cc1ccccc1C(OCCN(C)C)c1ccccc1 (centres undefined) | > 10 µM (inactive)
COC(=O)Nc1nc2ccc(C(=O)C3CC3)cc2[nH]1 | > 10 µM (inactive)
CCCCCCCCCCCCCCCC[N+](C)(C)Cc1ccccc1 | > 10 µM (inactive)
C[n+]1c2cc(N)ccc2cc2ccc(N)cc21 (tested in a mixture with another compound) | 1.96 µM
Cc1cc(=O)c2c(O)c3c(O)cc(=O)c4c3c3c(cc(O)c1c23)C(C)(C)C=4O | > 10 µM (inactive)
Cc1ccc(CCn2c3c(c4cc(Cl)ccc42)CN(C)CC3)cn1 | > 10 µM (inactive)
CC(CC1c2ccccc2CCc2ccccc21)CN(C)C (centres undefined) | > 10 µM (inactive)
O=C(O)CCc1nc2ccccc2[nH]1 | > 10 µM (inactive)
